Assay results from ChEMBL document CHEMBL3885861, “Open TG-GATES”.

Species: Rattus norvegicus
Assay: Open TG-GATES - Regimen: Single
Format: toxicity, organism-based, Sprague-Dawley
Set-up: regimen Single, gender Male, age 6 weeks
Conditions: in vivo, po, 0 mg/kg, route gavage, dose level Control; for APTT / Bas / Eos / Fbg / Hb / Ht / Lym / MCH / MCHC / MCV / Mono / Neu / PT / Plat / RBC / Ret / WBC: tissue Blood; for KIDNEY_L / KIDNEY_R / KIDNEY_TOTAL: tissue Kidney; for LIVER: tissue Liver; for A/G / ALP / ALT / AST / BUN / CRE / Ca / Cl / DBIL / GLC / IP / K / LDH / Na / PL / RALB / TBIL / TC / TG / TP / gamma-GTP: tissue Plasma

`CCc1oc2ccccc2c1C(=O)c1cc(Br)c(O)c(Br)c1` [BENZBROMARONE] showed a TERMINAL_BW (3 h) of 217.1 g, an APTT (3 h) of 17.3 s and a Bas (3 h) of 0%. It also gave an Eos (3 h) of 1%, a Fbg (3 h) of 226.8 mg/dL and a Hb (3 h) of 13.8 g/dL. For the same compound, the Ht (3 h) was 40.9%, the Lym (3 h) was 76.4% and the MCH (3 h) was 22.2 pg. It also gave an MCHC (3 h) of 33.8%, an MCV (3 h) of 65.9 fL and a Mono (3 h) of 7.4%. It also gave a Neu (3 h) of 15.2%, a PT (3 h) of 11.9 s and a Plat (3 h) of 104.6 x10_4/uL. It also gave an RBC (3 h) of 621.4 x10_4/ul, a Ret (3 h) of 7.9% and a WBC (3 h) of 127.8 x10_2/uL. For the same compound, the KIDNEY_L (3 h) was 0.9 g, the KIDNEY_R (3 h) was 0.9 g and the KIDNEY_TOTAL (3 h) was 1.9 g. The LIVER (3 h) was 10.1 g, the A/G (3 h) was 2 and the ALP (3 h) was 745.6 IU/L. It also gave an ALT (3 h) of 38.4 IU/L, an AST (3 h) of 65.4 IU/L and a BUN (3 h) of 12.2 mg/dL. It also gave a CRE (3 h) of 0.6 mg/dL, a Ca (3 h) of 10.8 mg/dL and a Cl (3 h) of 104 meq/L. For the same compound, the DBIL (3 h) was 0.046 mg/dL, the GLC (3 h) was 191 mg/dL and the IP (3 h) was 9.7 mg/dL. It also gave a K (3 h) of 4.8 meq/L, an LDH (3 h) of 81.6 IU/L and a Na (3 h) of 138.8 meq/L. For the same compound, the PL (3 h) was 143.6 mg/dL, the RALB (3 h) was 3.8 g/dL and the TBIL (3 h) was 0.3 mg/dL. For the same compound, the TC (3 h) was 75 mg/dL, the TG (3 h) was 84.2 mg/dL and the TP (3 h) was 5.7 g/dL. It also gave a gamma-GTP (3 h) of 1.8 IU/L, a TERMINAL_BW (6 h) of 212.5 g and an APTT (6 h) of 16 s. The Bas (6 h) was 0%, the Eos (6 h) was 1% and the Fbg (6 h) was 230.2 mg/dL. It also gave a Hb (6 h) of 14.1 g/dL, a Ht (6 h) of 41.9% and a Lym (6 h) of 79.8%. For the same compound, the MCH (6 h) was 21.8 pg, the MCHC (6 h) was 33.6% and the MCV (6 h) was 65 fL. It also gave a Mono (6 h) of 6.2%, a Neu (6 h) of 13.6% and a PT (6 h) of 12.2 s. For the same compound, the Plat (6 h) was 103.2 x10_4/uL, the RBC (6 h) was 645.6 x10_4/ul and the Ret (6 h) was 7.9%. It also gave a WBC (6 h) of 125.2 x10_2/uL, a KIDNEY_L (6 h) of 1 g and a KIDNEY_R (6 h) of 1 g. For the same compound, the KIDNEY_TOTAL (6 h) was 2.1 g, the LIVER (6 h) was 9.9 g and the A/G (6 h) was 2. For the same compound, the ALP (6 h) was 690.6 IU/L, the ALT (6 h) was 28.2 IU/L and the AST (6 h) was 57.4 IU/L. The BUN (6 h) was 10.6 mg/dL, the CRE (6 h) was 0.5 mg/dL and the Ca (6 h) was 10.5 mg/dL. The Cl (6 h) was 104.6 meq/L, the DBIL (6 h) was 0.006 mg/dL and the GLC (6 h) was 182.6 mg/dL. The IP (6 h) was 9.7 mg/dL, the K (6 h) was 5.2 meq/L and the LDH (6 h) was 82.8 IU/L. It also gave a Na (6 h) of 138.4 meq/L, a PL (6 h) of 142.2 mg/dL and an RALB (6 h) of 3.8 g/dL. For the same compound, the TBIL (6 h) was 0.4 mg/dL, the TC (6 h) was 72.4 mg/dL and the TG (6 h) was 69.2 mg/dL. It also gave a TP (6 h) of 5.7 g/dL, a gamma-GTP (6 h) of 1.2 IU/L and a TERMINAL_BW (9 h) of 208.2 g. For the same compound, the APTT (9 h) was 16.2 s, the Bas (9 h) was 0% and the Eos (9 h) was 0.8%. It also gave a Fbg (9 h) of 234.8 mg/dL, a Hb (9 h) of 13.6 g/dL and a Ht (9 h) of 40.6%. It also gave a Lym (9 h) of 74.6%, an MCH (9 h) of 21.6 pg and an MCHC (9 h) of 33.5%. For the same compound, the MCV (9 h) was 64.4 fL, the Mono (9 h) was 5.2% and the Neu (9 h) was 19.6%. For the same compound, the PT (9 h) was 12.2 s, the Plat (9 h) was 105.2 x10_4/uL and the RBC (9 h) was 631 x10_4/ul. The Ret (9 h) was 7.4%, the WBC (9 h) was 95.5 x10_2/uL and the KIDNEY_L (9 h) was 1 g. The KIDNEY_R (9 h) was 1 g, the KIDNEY_TOTAL (9 h) was 2 g and the LIVER (9 h) was 9.1 g. It also gave an A/G (9 h) of 1.9, an ALP (9 h) of 623.4 IU/L and an ALT (9 h) of 27 IU/L. It also gave an AST (9 h) of 58.8 IU/L, a BUN (9 h) of 11.2 mg/dL and a CRE (9 h) of 0.6 mg/dL. For the same compound, the Ca (9 h) was 10 mg/dL, the Cl (9 h) was 105.2 meq/L and the DBIL (9 h) was 0.008 mg/dL. For the same compound, the GLC (9 h) was 181.2 mg/dL, the IP (9 h) was 11 mg/dL and the K (9 h) was 5 meq/L. For the same compound, the LDH (9 h) was 86.8 IU/L, the Na (9 h) was 139.4 meq/L and the PL (9 h) was 126.4 mg/dL. The RALB (9 h) was 3.8 g/dL, the TBIL (9 h) was 0.3 mg/dL and the TC (9 h) was 71.6 mg/dL. It also gave a TG (9 h) of 42.8 mg/dL, a TP (9 h) of 5.8 g/dL and a gamma-GTP (9 h) of 1.2 IU/L. For the same compound, the TERMINAL_BW (24 h) was 225.6 g, the APTT (24 h) was 15.9 s and the Bas (24 h) was 0%. The Eos (24 h) was 1.2%, the Fbg (24 h) was 220.2 mg/dL and the Hb (24 h) was 13.9 g/dL. It also gave a Ht (24 h) of 41.4%, a Lym (24 h) of 75% and an MCH (24 h) of 21.4 pg. The MCHC (24 h) was 33.5%, the MCV (24 h) was 63.7 fL and the Mono (24 h) was 6.4%. For the same compound, the Neu (24 h) was 17.4%, the PT (24 h) was 11.9 s and the Plat (24 h) was 115 x10_4/uL. The RBC (24 h) was 650 x10_4/ul, the Ret (24 h) was 7.2% and the WBC (24 h) was 109 x10_2/uL. For the same compound, the KIDNEY_L (24 h) was 1 g, the KIDNEY_R (24 h) was 1 g and the KIDNEY_TOTAL (24 h) was 2 g. The LIVER (24 h) was 10.9 g, the A/G (24 h) was 2.1 and the ALP (24 h) was 682.4 IU/L. The ALT (24 h) was 32.2 IU/L, the AST (24 h) was 61 IU/L and the BUN (24 h) was 16.8 mg/dL. It also gave a CRE (24 h) of 0.6 mg/dL, a Ca (24 h) of 10.4 mg/dL and a Cl (24 h) of 104.6 meq/L. It also gave a DBIL (24 h) of 0.006 mg/dL, a GLC (24 h) of 188.8 mg/dL and an IP (24 h) of 7.8 mg/dL. The K (24 h) was 5.3 meq/L, the LDH (24 h) was 91.6 IU/L and the Na (24 h) was 138.8 meq/L. The PL (24 h) was 149.4 mg/dL, the RALB (24 h) was 4 g/dL and the TBIL (24 h) was 0.3 mg/dL. It also gave a TC (24 h) of 81 mg/dL, a TG (24 h) of 100.2 mg/dL and a TP (24 h) of 5.9 g/dL. It also gave a gamma-GTP (24 h) of 1 IU/L.
